Consider 1 compound from patent US9345742B2, “Aminostatin derivatives for the treatment of arthrosis” (MERCK PATENT GMBH, priority 2011, dated 2016).

The target of data set [1] is cathepsin D isolated from the human liver (Homo sapiens (Human), UniProt P07339). Description: In-vitro fluorescence assay for identification of cathepsin D inhibitors. The data set is classed as biochemical. To be noted: cathepsin D 1.4 nM, pH 5.5; read-out: CatD assay IC50-. A digest of the protocol:
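A FRET-quenched MCA/Dnp peptide (5 μM final) was cleaved by 1.4 nM liver-derived human cathepsin D at pH 5.5 in sodium acetate buffer containing CHAPS and 1.25% DMSO. Enzyme and compound dilutions were first incubated 10 min.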

The nature of data set [2]: Stability in bovine synovial fluid. The data set is classed as in vitro ADME. Particulars: 1 μM, 48 h at 37° C. The method, then: In order to check the stability of individual compounds, a pool of four different bovine synovial fluids is mixed. To this end, about 1 ml per SF is used. The mixture is prepared directly in a 5 ml glass vessel. The SFs are mixed thoroughly, but carefully. No air bubbles or foam should form. To this end, a vortex unit is used at the lowest speed. The compounds to be tested are tested in an initial concentration (unless required otherwise) of 1 μM. After addition of the substance, the batch is again mixed thoroughly and carefully. For visual monitoring, all SF batches are photographed, and the pictures are filed in the eLabBio file for the corresponding experiment. […] The batches are incubated in the incubator for 48 h at 37° C. and 7.5% CO2.
The sampling is carried out after the pre-agreed times (unless required otherwise, see below). 200 μl of the SF are removed from the mixture per time and transferred directly into a 0.5 ml “low-binding” Eppendorf vessel. “Low-binding” Eppendorf vessels are used in order to minimise interaction of the substances with the plastic of the vessels. 200 μl of acetonitrile have already been introduced into the Eppendorf vessel, so that a 1+1 mixture of the SF forms thereafter. This simplifies the subsequent analysis, but precipitation of protein may occur immediately after addition of the SF. This should be noted on the protocol. The 0 h sample is taken immediately after addition of the substance. This corresponds to the 100% value in the stability calculation. Ideally, the concentration employed should be retrieved here. The samples can be frozen at −20° C. • 0 h • 6 h • 24 h • 48 h
The negative control used is SF without substance. The positive control used is SF with 1 μM of substance. This corresponds to the 0 h value and thus 100% stability.
The concentrations measured (ng/ml) are plotted against the time in a graph (GraphPad Prism®). The percentage stability of the substance is determined here. The 100% value used is the initial value in the SF at time 0 h. The data are stored in eLabBio under the respective experiment number and reported in the MSR database (as percent stability after the corresponding incubation times).

The term IC50 denotes the concentration at which inhibition is half-maximal.

Chain of cathepsin D isolated from the human liver (P07339 65-161): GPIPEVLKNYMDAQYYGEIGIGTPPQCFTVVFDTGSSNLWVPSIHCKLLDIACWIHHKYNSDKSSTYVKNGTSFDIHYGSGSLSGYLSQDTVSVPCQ
Chain of cathepsin D isolated from the human liver (P07339 169-412): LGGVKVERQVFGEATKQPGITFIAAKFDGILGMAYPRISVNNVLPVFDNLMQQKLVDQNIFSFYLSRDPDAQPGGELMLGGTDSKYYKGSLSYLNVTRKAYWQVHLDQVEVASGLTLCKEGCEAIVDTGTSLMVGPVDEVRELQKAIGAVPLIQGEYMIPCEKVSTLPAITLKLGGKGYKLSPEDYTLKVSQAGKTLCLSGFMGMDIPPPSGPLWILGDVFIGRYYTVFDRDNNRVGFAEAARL

`CCC(CC)NC(=O)[C@@H](NC(=O)C[C@H](N)[C@H](Cc1ccccc1)NC(=O)[C@@H](NC(=O)[C@H](CC(C)C)NC(=O)CC(C)C)C(C)C)[C@@H](C)CC` [Compound 39, N-[(1S,2S)-1-(1-Ethylpropylcarbamoyl)-2-methylbutyl]-(S)-3-(S)-amino-4-{(S)-3-methyl-2-[(S)-4-methyl-2-(3-methylbutyryl-amino)pentanoylamino]butyrylamino}-5-phenylpentanamide]: the concentration for half-maximal inhibition (IC50) in data set [1] turned out to be 9.9 nM. In data set [2], the “Stability in synovial fluid” value is “stable”.
